Measured values taken from patent US20230225313A1, “Methods and Compositions for Use in Glued-Wood Products” (ARXADA AG, priority 2020, published 2023).
Read-outs that look alike come from different tables or passages of the source.

Assay: Thermogravimetric analysis (TGA), degradation temperature
Format: physicochemical
Protocol: The choice of suitable thermoplastics must also account for the biocide degradation temperature. The temperature of the melted thermoplastic at the point of biocide addition can be any temperature up to the biocide degradation temperature, preferably at least 20° C., and more preferably at least 40° C. below the biocide degradation temperature. Biocide degradation temperatures are most conveniently determined by thermogravimetric analysis (TGA). Unless hot melt mixing is to be performed in an inert atmosphere, TGA should be performed in air to account for oxidative degradation. TGA can be performed according to ISO 11358-1:2014.
Imidacloprid has a degradation temperature of about 274° C. (onset of weight loss, see the thermogravimetric analysis data in FIG. 1). Accordingly, the mixing of imidacloprid with any thermoplastic by hot melt extrusion (HME) should be performed at temperatures less than about 270° C.
Degradation temperatures were established by thermogravimetric analysis (TGA, see FIG. 1) with the following results: bifenthrin 195° C., triadimefon 195° C., and cyproconazole 205° C. These temperatures indicate upper limits for processing these biocides by HME. The melting points for these biocides are: bifenthrin 57-64.6° C., triadimefon 82.3° C., and cyproconazole 106.2-106.9° C.).
“Friable biocide-composites” comprising a biocide, a thermoplastic and an embrittling agent were formed by HME along with a “solidified biocide-composite” comprising a biocide and an embrittling agent, i.e. no thermoplastic. The organoclay Tixogel MP 100 was used as the embrittling agent. Tixogel MP 100 has a thermal degradation temperature of 222° C. measured as onset of weight loss (FIG. 7, note a slight initial loss of moisture). This temperature represents a practical upper limit for HME when using Tixogel MP 100.

Row | SMILES | Degradation temperature | Degradation temperature (TGA, onset of weight loss)
1 | CC(C1CC1)C(O)(Cn1cncn1)c1ccc(Cl)cc1 (stereo not drawn) [cyproconazole, α-(4-chlorophenyl)-α-(1-cyclopropylethyl)-1H-1,2,4-triazole-1-ethanol] | 205 °C | 
2 | CC(C)(C)C(=O)C(Oc1ccc(Cl)cc1)n1cncn1 (stereo not shown) [triadimefon, 1-(4-chlorophenoxy)-3,3-dimethyl-1-(1H-1,2,4-triazol-1-yl)-2-butanone] |  | 195 °C
3 | Cc1c(COC(=O)[C@@H]2[C@H](/C=C(\Cl)C(F)(F)F)C2(C)C)cccc1-c1ccccc1 (relative stereo) [bifenthrin, (2-methyl[1,1′-biphenyl]-3-yl)methyl (1R,3R)-rel-3-[(1Z)-2-chloro-3,3,3-trifluoro-1-propen-1-yl]-2,2-dimethylcyclopropanecarboxylate] |  | 195 °C
4 | O=[N+]([O-])NC1=NCCN1Cc1ccc(Cl)nc1 [Imidacloprid, (2E)-1-[(6-chloro-3-pyridinyl)methyl]-N-nitro-2-imidazolidinimin] | about 274 °C | 
